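Values below derive from 48-hour exposures of cells grown in 96-well plates, with endpoints linearly interpolated between the two concentrations bracketing the appropriate inhibition level. TGI is the concentration that stops growth completely.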
Columns and labels:
Test in all cases: NCI-60 cell line screen, 48 h
[1] = tested on: NCI-H23 lung
[2] = tested on: SK-OV-3 ovarian
[3] = tested on: SF-268 CNS
[4] = tested on: UO-31 renal
[5] = tested on: CCRF-CEM leukemia
[6] = tested on: BT-549 breast
[7] = tested on: MDA-MB-231 breast
[8] = tested on: PC-3 prostate
[9] = tested on: UACC-257 melanoma
[10] = tested on: SK-MEL-2 melanoma
[11] = tested on: SNB-19 CNS
[12] = tested on: NCI-H226 lung

Question: How did the TGI [1] turn out when `COC(=O)N1CC2C3C4CC(C(c5ccccc5)=C4c4ccccc4)C3C21` (configuration not stated) was run?
Answer: The TGI was 98.1 µM.

Question: What about the TGI [2] of the same molecule?
Answer: Its TGI is 70.2 µM.

Question: And the TGI [3]?
Answer: Its TGI is 33.7 µM.

Question: And the TGI [4]?
Answer: The TGI was 26 µM.

Question: What about the TGI [5] of the same molecule?
Answer: Its TGI is 43.4 µM.

Question: What about the TGI [6] of the same molecule?
Answer: Its TGI is 31.4 µM.

Question: What about the TGI [7] of the same molecule?
Answer: Its TGI is 22.3 µM.

Question: What about the TGI [8] of the same molecule?
Answer: Its TGI is 69.3 µM.

Question: And the TGI [9]?
Answer: Its TGI is 28.9 µM.

Question: What about the TGI [10] of the same molecule?
Answer: Its TGI is 50.5 µM.

Question: What about the TGI [11] of the same molecule?
Answer: Its TGI is 57.5 µM.

Question: What about the TGI [12] of the same molecule?
Answer: The TGI was 29.6 µM.

Reference: PubChem BioAssay (NCI)
